Source: ChEMBL document CHEMBL1132861, “Synthesis, radiolabelling and biological characterization of (D)-7-iodo-N-(1-phosphonoethyl)-5-aminomethylquinoxaline-2,3-dione, a glycine-binding site antagonist of NMDA receptors” (Bioorg Med Chem Lett, 2000)
pIC50: −log10 of the molar value. Values belong to the molecule of their own block, whether it stands above or below them.

Experiments:
[1] = target: Glutamate receptor ionotropic, NMDA 1 (Homo sapiens, UniProt Q05586); test: Compound was evaluated for its binding affinity for the glycine binding site on N-methyl-D-aspartate glutamate receptor by using [3H]MDL-105519 binding assay
[2] = target: Glutamate receptor ionotropic kainate (Homo sapiens) (UniProt P39086+Q16478+Q16099+Q13002+Q13003); test: Inhibition of binding of [3H]kainate to kainate at 10 uM compound concentration; format: protein-complex assay
Mus musculus [3] = test: Percent protection offered by the compound (10 mg/kg) in maximal electroshock test in mice, 60 min after intravenous administration; format: functional
Mus musculus [4] = test: Effective dose of the intravenously administered compound, protecting the mice in the maximal electroshock test; format: functional; conditions: iv
[5] = target: Glutamate receptor ionotropic AMPA (Homo sapiens, UniProt P42261+P42262+P42263+P48058); test: Compound has been evaluated for its binding affinity towards Ionotropic glutamate receptor AMPA by displacing the radioligand [3H]AMPA; format: protein-complex assay
[6] = target: Glutamate [NMDA] receptor; test: Compound has been evaluated for its binding affinity towards N-methyl-D-aspartate glutamate receptor by displacing the radioligand [3H]MK-801; format: protein-complex assay
[7] = target: Glutamate [NMDA] receptor; test: Compound has been evaluated for its binding affinity towards N-methyl-D-aspartate glutamate receptor by displacing the radioligand [3H]CGP-39653; format: protein-complex assay
[8] = target: Glutamate receptor ionotropic kainate; test: Compound has been evaluated for its binding affinity towards kainate by displacing the radioligand [3H]kainate; format: protein-complex assay
Mus musculus [9] = species: Mus musculus; test: Biodistribution of the injected compound in spleen of female BALB/C mice for 5 hours; format: ADME, organism-based; conditions: in vivo
Mus musculus [10] = species: Mus musculus; test: Biodistribution of the injected compound in bone of female BALB/C mice for 2.5 hours; format: ADME, organism-based, Bone element; conditions: in vivo
Mus musculus [11] = species: Mus musculus; test: Biodistribution of the injected compound in intestines of female BALB/C mice for 2.5 hours; format: ADME, organism-based, Intestine; conditions: in vivo
Mus musculus [12] = species: Mus musculus; test: Biodistribution of the injected compound in bone of female BALB/C mice for 5 hours; format: ADME, organism-based, Bone element; conditions: in vivo
Mus musculus [13] = species: Mus musculus; test: Biodistribution of the injected compound in muscle of female BALB/C mice for 2.5 hours; format: ADME, organism-based, Muscle tissue; conditions: in vivo
[14] = Octanol/water distribution coefficient at pH 4; format: physicochemical
Mus musculus [15] = species: Mus musculus; test: Biodistribution of the injected compound in stomach of female BALB/C mice for 0.5 hours; format: ADME, organism-based; conditions: in vivo
Mus musculus [16] = species: Mus musculus; test: Biodistribution of the injected compound in heart of female BALB/C mice for 2.5 hours; format: ADME, organism-based; conditions: in vivo
Mus musculus [17] = species: Mus musculus; test: Biodistribution of the injected compound in blood of female BALB/C mice for 0.5 hours; format: ADME, organism-based; conditions: in vivo
Mus musculus [18] = species: Mus musculus; test: Biodistribution of the injected compound in lung of female BALB/C mice for 0.5 hours; format: ADME, organism-based; conditions: in vivo
Mus musculus [19] = species: Mus musculus; test: Biodistribution of the injected compound in blood of female BALB/C mice for 5 hours; format: ADME, organism-based; conditions: in vivo
Mus musculus [20] = species: Mus musculus; test: Biodistribution of the injected compound in stomach of female BALB/C mice for 2.5 hours; format: ADME, organism-based; conditions: in vivo
Mus musculus [21] = species: Mus musculus; test: Biodistribution of the injected compound in bone of female BALB/C mice for 0.5 hours; format: ADME, organism-based, Bone element; conditions: in vivo
Mus musculus [22] = species: Mus musculus; test: Biodistribution of the injected compound in kidneys of female BALB/C mice for 5 hours; format: ADME, organism-based, Kidney; conditions: in vivo
Mus musculus [23] = species: Mus musculus; test: Biodistribution of the injected compound in intestines of female BALB/C mice for 5 hours; format: ADME, organism-based, Intestine; conditions: in vivo
Mus musculus [24] = species: Mus musculus; test: Biodistribution of the injected compound in stomach of female BALB/C mice for 5 hours; format: ADME, organism-based; conditions: in vivo
Mus musculus [25] = species: Mus musculus; test: Biodistribution of the injected compound in lung of female BALB/C mice for 5 hours; format: ADME, organism-based; conditions: in vivo
Mus musculus [26] = species: Mus musculus; test: Biodistribution of the injected compound in liver of female BALB/C mice for 5 hours; format: ADME, organism-based; conditions: in vivo
[27] = Octanol/water distribution coefficient at pH 7.5; format: physicochemical
[28] = Octanol/water distribution coefficient at pH 5.5; format: physicochemical
Mus musculus [29] = species: Mus musculus; test: Biodistribution of the injected compound in brain of female BALB/C mice for 2.5 hours; format: ADME, organism-based; conditions: in vivo
[30] = Octanol/water distribution coefficient at pH 3; format: physicochemical
Mus musculus [31] = species: Mus musculus; test: Biodistribution of the injected compound in liver of female BALB/C mice for 2.5 hours; format: ADME, organism-based; conditions: in vivo
Mus musculus [32] = species: Mus musculus; test: Biodistribution of the injected compound in intestines of female BALB/C mice for 0.5 hours; format: ADME, organism-based, Intestine; conditions: in vivo
Mus musculus [33] = species: Mus musculus; test: Biodistribution of the injected compound in blood of female BALB/C mice for 2.5 hours; format: ADME, organism-based; conditions: in vivo
Mus musculus [34] = species: Mus musculus; test: Biodistribution of the injected compound in spleen of female BALB/C mice for 0.5 hours; format: ADME, organism-based; conditions: in vivo
Mus musculus [35] = species: Mus musculus; test: Biodistribution of the injected compound in lung of female BALB/C mice for 2.5 hours; format: ADME, organism-based; conditions: in vivo
Mus musculus [36] = species: Mus musculus; test: Biodistribution of the injected compound in kidneys of female BALB/C mice for 2.5 hours; format: ADME, organism-based, Kidney; conditions: in vivo
Mus musculus [37] = species: Mus musculus; test: Biodistribution of the injected compound in brain of female BALB/C mice for 0.5 hours; format: ADME, organism-based; conditions: in vivo
Mus musculus [38] = species: Mus musculus; test: Biodistribution of the injected compound in muscle of female BALB/C mice for 5 hours; format: ADME, organism-based, Muscle tissue; conditions: in vivo
Mus musculus [39] = species: Mus musculus; test: Biodistribution of the injected compound in heart of female BALB/C mice for 0.5 hours; format: ADME, organism-based; conditions: in vivo
Mus musculus [40] = species: Mus musculus; test: Biodistribution of the injected compound in muscle of female BALB/C mice for 0.5 hours; format: ADME, organism-based, Muscle tissue; conditions: in vivo
[41] = Octanol/water distribution coefficient at pH 4.8; format: physicochemical
Mus musculus [42] = species: Mus musculus; test: Biodistribution of the injected compound in kidneys of female BALB/C mice for 0.5 hours; format: ADME, organism-based, Kidney; conditions: in vivo
[43] = Octanol/water distribution coefficient at pH 6.5; format: physicochemical
Mus musculus [44] = species: Mus musculus; test: Biodistribution of the injected compound in liver of female BALB/C mice for 0.5 hours; format: ADME, organism-based; conditions: in vivo
Mus musculus [45] = species: Mus musculus; test: Biodistribution of the injected compound in heart of female BALB/C mice for 5 hours; format: ADME, organism-based; conditions: in vivo
Mus musculus [46] = species: Mus musculus; test: Biodistribution of the injected compound in brain of female BALB/C mice for 5 hours; format: ADME, organism-based; conditions: in vivo
Mus musculus [47] = species: Mus musculus; test: Biodistribution of the injected compound in spleen of female BALB/C mice for 2.5 hours; format: ADME, organism-based; conditions: in vivo
[48] = Octanol/water distribution coefficient at pH 7.4; format: physicochemical

SMILES: C[C@@H](NCc1cc(C#N)cc2[nH]c(=O)c(=O)[nH]c12)P(=O)(O)O
- pIC50 [1]: 7.12

SMILES: C[C@@H](NCc1cc(C(F)(F)F)cc2[nH]c(=O)c(=O)[nH]c12)P(=O)(O)O
- pIC50 [1]: 8.10

SMILES: C[C@@H](NCc1cc(I)cc2[nH]c(=O)c(=O)[nH]c12)P(=O)(O)O
- Injected dose/g tissue (Mus musculus [9]): 0.21%
- Injected dose/g tissue (Mus musculus [10]): 0.92%
- Injected dose/g tissue (Mus musculus [11]): 0.22%
- Injected dose/g tissue (Mus musculus [12]): 0.78%
- Injected dose/g tissue (Mus musculus [13]): 0.21%
- logD [14]: -1.2
- Injected dose/g tissue (Mus musculus [15]): 0.58%
- Injected dose/g tissue (Mus musculus [16]): 0.93%
- Injected dose/g tissue (Mus musculus [17]): 1.1%
- Injected dose/g tissue (Mus musculus [18]): 0.96%
- Injected dose/g tissue (Mus musculus [19]): 0.49%
- Injected dose/g tissue (Mus musculus [20]): 0.23%
- Injected dose/g tissue (Mus musculus [21]): 1.46%
- Injected dose/g tissue (Mus musculus [22]): 2.98%
- Injected dose/g tissue (Mus musculus [23]): 0.2%
- pIC50 [1]: 8.10
- Injected dose/g tissue (Mus musculus [24]): 0.22%
- Injected dose/g tissue (Mus musculus [25]): 0.38%
- Injected dose/g tissue (Mus musculus [26]): 0.43%
- logD [27]: -1.8
- logD [28]: -1.6
- Injected dose/g tissue (Mus musculus [29]): 0.01%
- logD [30]: -0.8
- Injected dose/g tissue (Mus musculus [31]): 0.49%
- Injected dose/g tissue (Mus musculus [32]): 0.44%
- pIC50 [5]: 6.47
- Injected dose/g tissue (Mus musculus [33]): 0.54%
- Injected dose/g tissue (Mus musculus [34]): 0.46%
- Injected dose/g tissue (Mus musculus [35]): 0.4%
- Injected dose/g tissue (Mus musculus [36]): 3.29%
- Injected dose/g tissue (Mus musculus [37]): 0.03%
- Injected dose/g tissue (Mus musculus [38]): 0.19%
- pIC50 [6]: < 5.00
- Injected dose/g tissue (Mus musculus [39]): 1.34%
- pIC50 [7]: < 5.00
- Injected dose/g tissue (Mus musculus [40]): 0.4%
- logD [41]: -1.5
- Injected dose/g tissue (Mus musculus [42]): 6.68%
- logD [43]: -1.7
- Injected dose/g tissue (Mus musculus [44]): 0.92%
- Injected dose/g tissue (Mus musculus [45]): 0.82%
- Injected dose/g tissue (Mus musculus [46]): 0.01%
- Injected dose/g tissue (Mus musculus [47]): 0.23%
- logD [48]: -2.5

SMILES: C[C@@H](NCc1cc([N+](=O)[O-])cc2[nH]c(=O)c(=O)[nH]c12)[P+]([O-])(O)O
- pIC50 [1]: 7.49

The next lines start with results.

- inhibition [2]: 49%
SMILES: C[C@@H](NCc1cc(I)cc2nc(O)c(O)nc12)P(=O)(O)O
- Protection (Mus musculus [3]): 20%
- ED50 (Mus musculus [4]): 10 mg/kg

- pIC50 [1]: 8.30
- pIC50 [5]: 5.52
- pIC50 [6]: < 5.00
- pIC50 [7]: < 5.00
- pIC50 [8]: 5.57
SMILES: C[C@@H](NCc1cc(Br)cc2nc(O)c(O)nc12)P(=O)(O)O
- Protection (Mus musculus [3]): 60%
- ED50 (Mus musculus [4]): 5 mg/kg

- pIC50 [1]: 8.22
SMILES: C[C@@H](NCc1cc(Cl)cc2nc(O)c(O)nc12)P(=O)(O)O

- pIC50 [1]: 8.05
SMILES: C[C@@H](NCc1cc(F)cc2[nH]c(=O)c(=O)[nH]c12)P(=O)(O)O
